Target: T1, caspase-3 in HeLa cell (Homo sapiens, UniProt P42574)
T1 sequence (P42574 29-175 limits assumed): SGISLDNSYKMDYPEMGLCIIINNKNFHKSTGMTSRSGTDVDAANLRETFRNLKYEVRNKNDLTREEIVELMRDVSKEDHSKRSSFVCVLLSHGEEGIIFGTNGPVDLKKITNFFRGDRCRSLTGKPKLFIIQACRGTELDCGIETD
T1 sequence (P42574 176-277 limits assumed): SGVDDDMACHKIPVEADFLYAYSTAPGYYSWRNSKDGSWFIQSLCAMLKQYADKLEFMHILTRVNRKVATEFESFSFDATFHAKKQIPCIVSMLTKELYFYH
Assay: Apo-One Homogeneous Caspase-3/7 whole cell assay in HeLa cells

O=C1C(=O)N(Cc2cn(CCF)nn2)c2ccc(S(=O)(=O)N3CCC[C@H]3COc3ccc(F)cc3F)cc21 [Compound 51]
inhibition potency for caspase-3 in the whole cell assay (in words): very good inhibition potency

Reference: PMC3075238 (Bioorganic & medicinal chemistry letters, 2011)
